13 compounds from US20240239792A1, “MODULATORS OF BCL-2 OR BCL-2/BCL-XL AND USES THEREOF” (APPICINE THERAPEUTICS (HK) LIMITED, priority 2021, published 2024) can be followed below.

For one experiment, the target named is T1, BCL-2 (Homo sapiens, UniProt P10415).
T1 construct: purchased Cisbio 63ADK000CB01PEG
The experiment can be described thus: HTRF BCL-2/BAK assay (Cisbio). The format is binding. The following applies: recombinant human Tag1-BCL-2 2 nM, Tag2-BAK 10 nM. The procedure: Then the pre-mixed anti-Tag1-Eu^3+ and anti-tag2-XL665 were added to the plate and further incubated at room temperature for another 2 hours. The signals ([…]) were read on Envision 2104 instrument. The IC50 for each compound was derived from fitting the signal of 665/615 nM to the increasing compound concentration.
Using the above assays, the following compounds were tested.

The subject of the next experiment is DOHH2 cells. The experiment can be described thus: CellTiter-Glo cell proliferation assay, DOHH2 cells. Type of experiment: cell-based. To be noted: Homo sapiens, DOHH-2, 72 hours. On the procedure:
The CellTiter-Glo® Luminescent Cell Viability Assay (Promega, G7573) was used to study the cellular potency of disclosed compounds herein. The cells were harvested during the logarithmic growth period and counted with hemocytometer. The DOHH2 cells were seeded at 1.6*10^4 in 90 ul DMEM medium supplemented with 10% fetal bovine serum (FBS) (as RS4;11 cells were seeded at 4000 in 90 ul RPMI-1640 medium with 10% FBS) per well in 96-well plates and treated with 10 ul of a serial dilution of compounds disclosed herein (maximum concentration and dilution ratio determined by the results of pre-experiment may vary) for 72 hours in a 5% CO2 incubator at 37° C. Cell viability was assessed according to the manufacturer's recommendations. After the plates return to the room temperature, 100 ul of CellTiter-Glo® reagent was added to 100 ul of cell culture. The mixture was agitated on an orbital shaker for 2 minutes or placed it at room temperature for 10 minutes to allow cell lysis and stabilization of luminescent signals. Luminescent signals were recorded using Envision 2104 instrument. And GI50 values were then calculated.

T1 sequence (P10415 whole entry): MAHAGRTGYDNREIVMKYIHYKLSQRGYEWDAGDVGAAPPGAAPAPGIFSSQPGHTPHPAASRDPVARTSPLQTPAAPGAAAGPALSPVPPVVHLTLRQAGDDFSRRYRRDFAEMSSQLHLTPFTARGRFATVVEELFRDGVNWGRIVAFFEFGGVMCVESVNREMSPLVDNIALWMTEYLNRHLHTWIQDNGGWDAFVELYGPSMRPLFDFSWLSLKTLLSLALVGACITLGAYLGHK

`O=C(NS(=O)(=O)c1ccc(NCC2CCOCC2)c([N+](=O)[O-])c1)c1ccc(N2CCN(C3CCCc4ccccc43)CC2)cc1Oc1cnc2[nH]ccc2c1` (stereo not shown) [Compound 2, 2-((1H-pyrrolo[2,3-b]pyridin-5-yl)oxy)-N-((3-nitro-4-(((tetrahydro-2H-pyran-4-yl)methyl)amino)phenyl)sulfonyl)-4-(4-(1,2,3,4-tetrahydronaphthalen-1-yl)piperazin-1-yl)benzamide]: on BCL-2, the IC50 lay in the range of 20 to 200 nM. Besides, the GI50 with DOHH2 cells was greater than 5000 nM.

Consider `O=C(NS(=O)(=O)c1ccc(NCC2CCOCC2)c([N+](=O)[O-])c1)c1ccc(N2CCN(C3CCc4ccccc43)CC2)cc1Oc1cnc2[nH]ccc2c1` (stereo not shown) [Compound 4, 2-((1H-pyrrolo[2,3-b]pyridin-5-yl)oxy)-4-(4-(2,3-dihydro-1H-inden-1-yl)piperazin-1-yl)-N-((3-nitro-4-(((tetrahydro-2H-pyran-4-yl)methyl)amino)phenyl)sulfonyl)benzamide], for which the IC50 at BCL-2 lay within 20 to 200 nM. In the experiment with DOHH2 cells, this compound registered a GI50 of 500 to 5000 nM.

Regarding `O=C(NS(=O)(=O)c1ccc(NCC2CCOCC2)c([N+](=O)[O-])c1)c1ccc(N2CCN(C3CCCCc4ccccc43)CC2)cc1Oc1cnc2[nH]ccc2c1` (stereo not shown) [Compound 6, 2-((1H-pyrrolo[2,3-b]pyridin-5-yl)oxy)-N-((3-nitro-4-(((tetrahydro-2H-pyran-4-yl)methyl)amino)phenyl)sulfonyl)-4-(4-(6,7,8,9-tetrahydro-5H-benzo[7]annulen-5-yl)piperazin-1-yl)benzamide], at BCL-2, the IC50 was less than 20 nM. In the experiment on DOHH2 cells, this compound gave a GI50 of 50 to 500 nM.

With `O=C(NS(=O)(=O)c1ccc(NCC2CCOCC2)c([N+](=O)[O-])c1)c1ccc(N2CCN(C3CCOc4ccccc43)CC2)cc1Oc1cnc2[nH]ccc2c1` (stereo not shown) [Compound 17, 2-((1H-pyrrolo[2,3-b]pyridin-5-yl)oxy)-4-(4-(chroman-4-yl)piperazin-1-yl)-N-((3-nitro-4-(((tetrahydro-2H-pyran-4-yl)methyl)amino)phenyl)sulfonyl)benzamide], the IC50 on BCL-2 was in the range of 20 to 200 nM. In the experiment on DOHH2 cells, this compound had a GI50 of 500 to 5000 nM.

For `O=C(NS(=O)(=O)c1ccc(NCC2CCOCC2)c([N+](=O)[O-])c1)c1ccc(N2CCN(C3CCCCc4ccc(-c5ccccc5)cc43)CC2)cc1Oc1cnc2[nH]ccc2c1` (stereo not shown) [Compound 22, 2-((1H-pyrrolo[2,3-b]pyridin-5-yl)oxy)-N-((3-nitro-4-(((tetrahydro-2H-pyran-4-yl)methyl)amino)phenyl)sulfonyl)-4-(4-(3-phenyl-6,7,8,9-tetrahydro-5H-benzo[7]annulen-5-yl)piperazin-1-yl)benzamide], the IC50 at BCL-2 lay in the range of 20 to 200 nM. The GI50 with DOHH2 cells was in the range of 500 to 5000 nM.

For `O=C(NS(=O)(=O)c1ccc(NCC2CCOCC2)c([N+](=O)[O-])c1)c1ccc(N2CCN(C3CCCCc4c(Cl)cccc43)CC2)cc1Oc1cnc2[nH]ccc2c1` (stereo not shown) [Compound 27, 2-((1H-pyrrolo[2,3-b]pyridin-5-yl)oxy)-4-(4-(1-chloro-6,7,8,9-tetrahydro-5H-benzo[7]annulen-5-yl)piperazin-1-yl)-N-((3-nitro-4-(((tetrahydro-2H-pyran-4-yl)methyl)amino)phenyl)sulfonyl)benzamide], the IC50 on BCL-2 was less than 20 nM. Moreover, the GI50 with DOHH2 cells was less than 50 nM.

For the compound `O=C(NS(=O)(=O)c1ccc(NCC2CCOCC2)c([N+](=O)[O-])c1)c1ccc(N2CCN(C3CCCOc4ccccc43)CC2)cc1Oc1cnc2[nH]ccc2c1` (stereo not shown) [Compound 36, 2-((1H-pyrrolo[2,3-b]pyridin-5-yl)oxy)-N-((3-nitro-4-(((tetrahydro-2H-pyran-4-yl)methyl)amino)phenyl)sulfonyl)-4-(4-(2,3,4,5-tetrahydrobenzo[b]oxepin-5-yl)piperazin-1-yl)benzamide], the IC50 at BCL-2 is less than 20 nM. In addition, the GI50 with DOHH2 cells was in the range of 50 to 500 nM.

Turning to `O=C(NS(=O)(=O)c1ccc(NCC2CCOCC2)c([N+](=O)[O-])c1)c1ccc(N2CCN(C3CCCCc4c(C5CCCC5)cccc43)CC2)cc1Oc1cnc2[nH]ccc2c1` (stereo not shown) [Compound 55, 2-((1H-pyrrolo[2,3-b]pyridin-5-yl)oxy)-4-(4-(1-cyclopentyl-6,7,8,9-tetrahydro-5H-benzo[7]annulen-5-yl)piperazin-1-yl)-N-((3-nitro-4-(((tetrahydro-2H-pyran-4-yl)methyl)amino)phenyl)sulfonyl)benzamide], the IC50 on BCL-2 lay in the range of 20 to 200 nM. The same compound displayed a GI50 in the experiment with DOHH2 cells greater than 5000 nM.

On to `Cc1nnc2n1CC(CNc1ccc(S(=O)(=O)NC(=O)c3ccc(N4CCN(C5CCCCc6c(Cl)cccc65)CC4)cc3Oc3cnc4[nH]ccc4c3)cc1[N+](=O)[O-])CC2` (stereo not shown) [Compound 57, 2-((1H-pyrrolo[2,3-b]pyridin-5-yl)oxy)-4-(4-(1-chloro-6,7,8,9-tetrahydro-5H-benzo[7]annulen-5-yl)piperazin-1-yl)-N-((4-(((3-methyl-5,6,7,8-tetrahydro-[1,2,4]triazolo[4,3-a]pyridin-6-yl)methyl)amino)-3-nitrophenyl)sulfonyl)benzamide], for which the IC50 at BCL-2 is less than 20 nM. In addition, in the experiment on DOHH2 cells, the GI50 was 500 to 5000 nM.

On to `Nc1cccc2c1CCCCC2N1CCN(c2ccc(C(=O)NS(=O)(=O)c3ccc(NCC4CCOCC4)c([N+](=O)[O-])c3)c(Oc3cnc4[nH]ccc4c3)c2)CC1` (stereo not shown) [Compound 58, 2-((1H-pyrrolo[2,3-b]pyridin-5-yl)oxy)-4-(4-(1-amino-6,7,8,9-tetrahydro-5H-benzo[7]annulen-5-yl)piperazin-1-yl)-N-((3-nitro-4-(((tetrahydro-2H-pyran-4-yl)methyl)amino)phenyl)sulfonyl)benzamide], for which, on BCL-2, the IC50 was less than 20 nM. Further, in the experiment on DOHH2 cells, the GI50 is 500 to 5000 nM.

For `CC(=O)Nc1cccc2c1CCCCC2N1CCN(c2ccc(C(=O)NS(=O)(=O)c3ccc(NCC4CCOCC4)c([N+](=O)[O-])c3)c(Oc3cnc4[nH]ccc4c3)c2)CC1` (stereo not shown) [Compound 59, 2-((1H-pyrrolo[2,3-b]pyridin-5-yl)oxy)-4-(4-(1-acetamido-6,7,8,9-tetrahydro-5H-benzo[7]annulen-5-yl)piperazin-1-yl)-N-((3-nitro-4-(((tetrahydro-2H-pyran-4-yl)methyl)amino)phenyl)sulfonyl)benzamide], the IC50 at BCL-2 was less than 20 nM. The GI50 with DOHH2 cells is greater than 5000 nM.

In the case of `CS(=O)(=O)N1CCc2ccccc2C(N2CCN(c3ccc(C(=O)NS(=O)(=O)c4ccc(NCC5CCOCC5)c([N+](=O)[O-])c4)c(Oc4cnc5[nH]ccc5c4)c3)CC2)C1` (stereo not shown) [Compound 60, 2-((1H-pyrrolo[2,3-b]pyridin-5-yl)oxy)-4-(4-(3-(methylsulfonyl)-2,3,4,5-tetrahydro-1H-benzo[d]azepin-1-yl)piperazin-1-yl)-N-((3-nitro-4-(((tetrahydro-2H-pyran-4-yl)methyl)amino)phenyl)sulfonyl)benzamide], on BCL-2, the IC50 is less than 20 nM. The GI50 in the experiment with DOHH2 cells is greater than 5000 nM.

The compound `CC1(C)CCC2(CC1)CC(CNc1ccc(S(=O)(=O)NC(=O)c3ccc(N4CCN([C@@H]5CCCCc6c(Cl)cccc65)CC4)cc3Oc3cnc4[nH]ccc4c3)cc1[N+](=O)[O-])C2` [Compound 136, (R)-2-((1H-pyrrolo[2,3-b]pyridin-5-yl)oxy)-4-(4-(1-chloro-6,7,8,9-tetrahydro-5H-benzo[7]annulen-5-yl)piperazin-1-y1)-N-((4-(((7,7-dimethylspiro[3.5]nonan-2-yl)methyl)amino)-3-nitrophenyl)sulfonyl)benzamide] yielded a GI50 with DOHH2 cells greater than 5000 nM.

A word on the IC50: it is the concentration that inhibits the measured activity by half. Usually GI50 stands for the concentration that inhibits growth by half. Low readings indicate more potent growth inhibition, high ones less potent growth inhibition.
